{"source": "patent US10640748B2", "about": "“Oligodendroglial cell culturing methods and in methods for treating neurodegenerative disorders by using thyroid hormones or analogues” (NeuOrphan Pty Ltd, priority 2014, dated 2020)", "tested_on": "Nkx2.1-GFP sorted cells transduced with slc16a2 shRNA lentivirus", "assay": "Apoptosis assay (cleaved caspase-3) after stable knockdown of slc16a2", "assay_type": "cell-based", "settings": "DITPA from 3 days post-LV-transduction", "experimental": "Nkx2.1-GFP sorted cells at the end of stage VI or V were transduced with MOI of 10 in appropriate stage-specific medium containing polybrene (5 μg/mL, Sigma-Aldrich). Efficiency of transduction was validated by analyzing mCherry+ cells by flow cytometry and efficiency of knockdown was validated by analyzing the slc16a2 transcript level by qRT-PCR 72 hours post-transduction. An apoptosis assay was performed on cells either, treated with or without DITPA for 2 days from 72 hours post-transduction, then fixed. Cells were stained with monoclonal rat anti-mCherry (M11217, Life Technologies, 1:1,000), polyclonal rabbit anti-cleaved caspase-3 (9661, Cell Signaling Technology, 1:400) and DAPI (Life Technologies) then analyzed by confocal microscopy (Nikon A1 Inverted using a ×20 water objective lens). Apopotic OLs were defined as those mCherry-positive cells with cleaved caspase-3+ nuclei that were also condensed and fragmented as assessed by DAPI. The data were plotted as the number of cleaved caspase-3/mCherry+ cells divided by total number of mCherry+ cells.", "note": "Entries after “also recorded” stand apart in the source; their conditions may differ."}
{"smiles": "O=C(O)CCc1cc(I)c(Oc2ccc(O)cc2)c(I)c1", "note": "[DITPA, 3,5-Diiodothyropropionic acid]", "values": [{"measurement": "cell death / apoptosis mediated by slc16a2 knock-down", "result": "significantly reduced cell death; also recorded: Depicts an experiment which shows that DITPA rescues oligodendrocyte death"}]}
